Laboratory results: patent publication US20080287472A1 (priority 2002, published 2008)

How the values were obtained:
[1] = test system: Pyricularia oryzae (rice blast); format: in vivo; details: 200 ppm, rice leaf segments, sprayed before inoculation, assessed four days after inoculation
[2] = test system: Erysiphe graminis f.sp. tritici (wheat powdery mildew); details: in vivo
[3] = test system: Erysiphe graminis f.sp. hordei (barley powdery mildew); details: in vivo

Structure (SMILES)	control of disease [1]	control of disease [2]	control of disease [3]	melting point
CC(C)Nc1c(-c2c(F)cc(F)cc2F)c(Cl)nc2cncnc12 [Compound 3 (1), [6-chloro-7-(2,4,6-trifluorophenyl)-pyrido[3,2-d]pyrimidin-8-yl]-isopropylamine]	greater than 60%	greater than 60%	greater than 60%	
CCC(C)Nc1nc2ncncc2c(Cl)c1-c1c(F)cc(F)cc1F (stereo not shown)				179 °C
